Results taken from US6756054B1, “Polycationic sterol derivatives as transfection agents” (IC-VEC Limited, priority 1996, dated 2004).

Assays:
[1] = tested on: CFT1 cells; assay: in vitro transfection of CFT1 cells with pCF1-βGal plasmid by cationic liposomes (DC-Chol analogue/DOPE), β-galactosidase expression; type: cell-based; details: for rank of DC-Chol analogues for in vitro gene delivery: most effective triamine, tetramine and pentamine; for gene delivery efficiency in vitro over and above DC-Chol/DOPE liposomes: pCF1-βGal plasmid, liposomes with DOPE, relative to DC-Chol/DOPE liposomes formulated in a similar way (FIG. 24)
Protocol: FIG. 23 is an example of in vitro optimisation of pCF1-βGal plasmid transfection of CFT1 cells in vitro using complexes of pCF1-βGal and cationic liposomes formulated from DC-Chol analogue 8f′ and DOPE 2 (1:1) molar ratio. CFT1 cells were transfected with an array of different cationic liposome and plasmid ratios in a 96-well plate. The extent of transfection in each well was determined after 2 days by measuring the levels of β-galactosidase expression. Plasmid DNA concentration is expressed as the concentration of nucleotides assuming an average nucleotide FWt of 330. Cationic liposome concentration is expressed in terms of the concentration of the constituent DC-Chol analogue 8f′ alone.
FIG. 24 presents rank order of DC-Chol polyamine analogues transfecting CFT1 cells in vitro with the pCF1-βGal plasmid. Gene delivery activity is expressed as a proportion of the activity measured with standard liposomes containing DC-Chol 1 and DOPE 2. The data shown are the averages of four separate experiments, each performed in triplicate.
The ratios in curved brackets refer to the DC-Chol analogue:DOPE 2 molar ratio used to formulate the liposomes. The numbers in square brackets refer to compound serial numbers. Where appropiate DC-Chol analogue name abbreviations are also included (see experimental).
(§1) The ability of cationic liposomes containing the different DC-Chol polyamine analogues to mediate gene delivery was analysed both in vitro and in vivo. Cationic liposomes were formulated by hydrating a dried lipid film, containing DC-Cholanalogue and DOPE 2 in an appropriate molar ratio of either 1:0, 1:1, 1:2 or 2:1 respectively. and vortex mixing.^[32] Cationic liposome/plasmid DNA complexes were then prepared by adding appropriately diluted cationic liposome suspensions into equal volumes of aqueous plasmid DNA solutions at 30° C. and allowing the mixture to equilibrate to ambient temperature over 15 min.^[32] In vitro studies were then performed with immortalised cystic fibrosis airway epithelial (CFT1) cells followed by in vivo studies in which cationic liposome/plasmid DNA complexes were instilled intranasally into the lungs of female BALB/c mice.^[32] Typically, cationic liposome gene delivery was first optimised in vitro so as to establish the best molar ratio of cationic liposome to plasmid DNA (DNA concentration was expressed as nucleotide concentration) as well as the best absolute quantities of both, as illustrated (FIG. 23). This optimised combination was then tested in vivo. The in vitro results are shown (FIG. 24). […] The analogues were 8a′, 8b′, 8e′, 8f′, 13a′ and 17b′, the first four being triamines, the fifth a tetramine and the sixth a pentamine. With one exception, 8f′, these polyamine analogues contain inter-nitrogen methylene group spacings not normally associated with the natural polyamines spermidine 18′ (see for example FIG. 29), spermine 19′ (see for example FIG. 29) and pentamine 20′ (see for example FIG. 29) upon which these structures are based. In vivo (FIG. 25), the best DC-Chol analogues were 13c′, 13f′ and especially 17a′. Both 17a′ and 13c′ also contain unnatural methylene group spacings.
For the in vitro and in vivo tests, a dried lipid film containing the given DC-Chol analogue and DOPE 2 (in either a 1:0, 1:1, 1:2 or 2:1 respective molar ratio), was hydrated for 10 min in sterile pyrogen-free water and then liposomes were produced by 2 min vortex mixing. The average diameter was between 200-400 nm.^[32] Cationic liposomes containing DC-Chol 1 and DOPE 2 were formulated in the same way described previously.^[24, 36]
Cationic liposome/plasmid DNA complexes were then prepared as follows.
Both cationic liposome suspensions and DNA (either pCF1-βGal plasmid expressing β-galactosidase or pCF1-CAT expressing chloramphenicol acetyl transferase)^[32] solutions were separately pre-incubated for 5 min at 30° C., before being diluted to the appropriate final concentrations and then combined. […]

[2] = tested on: lungs of female BALB/c mice; assay: in vivo transfection of mouse lung with pCF1-CAT plasmid by intranasally instilled cationic liposome/DNA complexes, CAT activity in lung homogenates; details: for rank of DC-Chol analogues for in vivo gene delivery: female BALB/c mice lung, pCF1-CAT plasmid, optimal formulation, CAT activity after 2 days (FIG. 25)
Protocol: FIG. 25 presents the rank order of DC-Chol polyamine analogues transfecting the lungs of female BALB/c mice with the pCF1-CAT plasmid. Mice were instilled with a solution of the plasmid (4 mM nucleotide concentration) and the optimal quantity and ratio of cationic liposome, in a total volume of 100 μl. Gene delivery activity was determined as a function of chloramphenicol acetyl transferase activity in lung homogenates after 2 days.
Data points were from separate experiments with each optimal formulation tested in 4 BALB/c mice. The ratios in curved brackets refer to the DC-Chol analogue:DOPE 2 molar ratio. The numbers in square brackets refer to compound serial numbers. Where appropiate DC-Chol analogue name abbreviations are also included (see experimental).
as §1, with “spacings. […]” for “spacings.”

[3] = reported; cited from earlier work
[4] = mouse lung, pCF1-CAT plasmid (FIG. 25)

| Molecule | rank of DC-Chol analogues for in vitro gene delivery [1] | gene delivery efficiency in vitro over and above DC-Chol/DOPE liposomes [1] | rank of DC-Chol analogues for in vivo gene delivery [2] | further results |
| --- | --- | --- | --- | --- |
| CC(C)CCCC(C)C1CCC2C3CC=C4CC(OC(=O)NCCCNCCCN)CCC4(C)C3CCC12C (centres unmarked) [8e′, 4-aza-N′-cholesteryloxycarbonyl-1,7-heptanediamine] | most effective | significant improvements | – | – |
| CC(C)CCC[C@@H](C)[C@H]1CC[C@H]2[C@@H]3CC=C4C[C@@H](OC(=O)NCCNCCCNCCN)CC[C@]4(C)[C@H]3CC[C@]12C [13a′, N′-cholesteryloxy-carbonyl-3,7-diaza-1,9-nonanediamine] | most effective | significant improvements | – | – |
| CC(C)CCCC(C)C1CCC2C3CC=C4CC(OC(=O)NCCCNCCCCNCCCN)CCC4(C)C3CCC12C (centres unmarked) [13f′, N^1-cholesteryloxy-carbonyl-4,9-diaza-1,12-dodecanediamine] | – | – | best and most effective | – |
| CCCCCCCCCCCCOCC(C[N+](C)(C)CCCN)OCCCCCCCCCCCC.[Br-] (centres unmarked) [GAP-DLRIE, (B1)-N-(3-aminopropyl)-N,N-dimethyl-2,3-bis-(dodecyloxy)-1-propanaminium bromide] | – | – | – | in vivo efficacy relative to plasmid DNA alone [3]: about 100 fold |
| N^10-cholesteryloxycarbonyl-4,8,13-triaza-1,16-hexadecanediamine [17b′] | most effective | significant improvements | – | – |
| N^15-cholesteryloxycarbonyl-3,7,12-triaza-1,15-pentadecanediamine [17a′] | – | – | best and most effective | effectiveness in mouse lung relative to DC-Chol 1 [2, 4]: about 100 fold; effectiveness in mouse lung relative to plasmid DNA alone [2, 4]: approx 500 fold |
